# Experimental data as given in US5872124A, “Treatment of diseases of the central nervous system using uric acid as a scavenger of peroxynitrite” (Thomas Jefferson University, priority 1996, dated 1999).
# How the values were obtained:
# [1] = test system: experimental allergic encephalomyelitis (EAE), MBP-specific T cell transfer; assay: Clinical severity of adoptive transfer EAE in Lewis rats; assay type: in vivo
# Text: (§1) Induction of EAE in rats by adoptive transfer of MBP-specific T cells or in SJL or SWXJ-14 mice by immunization with MBP or PLP 139-151, a peptide derived from […] [8], results in variable disease. We have scored the clinical systems of EAE as tabulated below.
# ______________________________________
# (§2) Severity scores and symptoms of Experimental Allergic
# (§3) 1 piloerection, tail weakness
# (§4) 3 hind limb weakness/paralysis
# (§5) 4 hind and forelimb paralysis
# (§6) In FIG. 1, EAE was elicited in 11 week old female Lewis rats by the adoptive transfer of 20×10^6 cells of the MBP-specific line 5HGBP.G5 activated by stimulation with MBP and syngeneic APC 48 hours previously and NO levels measured 5 days after transfer. In SWXJ-14 mice, EAE was triggered by two subcutaneous immunizations (d.0 and 7) with 100 μg PLP in CFA over two injection sites, and NO levels measured 18 days later. Results expressed represent the mean values obtained from a minimum of 4 animals. Peak severity of the symptoms of EAE ranged from 2-3 for the rats and 4-5 for the mice. NO was semi-quantitated using spin trapping with DETC and EPR-spectroscopy as described previously.
# (§7) Rats were injected i.v. with 20×10^6 MBP-specific CD4 T cells activated in vitro. Two days later the animals were treated with a single dose of either PTIO (20 mg) or a mixture of PTIO (20 mg), indomethacin (1 mg), and allopurinol (13 mg). Treatment was continued on a daily basis until day 4 and animals were sacrificed for NO measurement the following day.
# [2] = test system: nitric oxide (NO); assay: NO level in spinal cord of Lewis rats with adoptive transfer EAE (spin trapping, EPR); assay type: in vivo
# Method: as §6, §7
# [3] = test system: experimental allergic encephalomyelitis (EAE), immunization-elicited; assay: Clinical severity of immunization-elicited EAE in SJL mice; assay type: in vivo
# Text: as §1, §2, §3, §4, §5
# SJL mice are immunized subcutaneously with pMBP in adjuvant to induce EAE, from which they often recover. Commencing ten days post-immunization, groups of mice (n=6) were treated once daily with 2 mg of either PTIO or carboxy-PTIO intraperitoneally and observed for clinical signs of EAE which were graded as detailed in Table 1. […] At 18 days […], NO determinations were performed in several mice from each group.
# [4] = test system: experimental allergic encephalomyelitis (EAE), PLP immunization; assay: Clinical severity of PLP-induced EAE in SWXJ-14 mice; assay type: in vivo; settings: started 4-5 days after immunization with myelin antigens
# Method: FIG. 2. Effect of daily administration of c-PTIO (carboxy-PTIO) on EAE in SWXJ-14 mice. EAE was induced in SWJX-14 mice by two subcutaneous immunizations (d.0 and d.7) of […] PLP in CFA over two injection sites. Mice (N=3) were treated beginning on day 5 post-immunization with 2 mg/mouse c-PTIO […] i.p. and was continued until day 16 post-immunization (day 0 being the day of first immunization). Mean severity scores were graded as detailed in Table 1.
# FIG. 4. Effect of D609 on the development of EAE in SWXJ-14 mice. SWXJ-mice were immunized with PLP as detailed for FIG. 2. Mice (n=2) were treated i.p. with 1 mg/mouse D609 from day 5 through day 14 post-immunization. Mean severity scores were graded as detailed in Table 1.
# FIG. 12. Effect of the administration of various doses of uric acid on EAE in SWXJ-14 mice. EAE was induced in SWXJ-14 mice by two subcutaneous immunizations (d.0 and 7) of […] PLP in CFA over two injection sites. Mice (n=5) were treated once daily, beginning on day 5 post-immunization, with the indicated doses of uric acid. Mean severity scores were graded as detailed in Table 1.
# as §1, §2, §3, §4, §5, §6
# Clinical symptoms manifest as an ascending paralysis approximately 13 days after immunization and the disease rapidly progresses to its fatal endpoint by day 16-20. […] NO levels in the brains and spinal cords of animals treated with a single daily dose of PTIO were semi-quantitated by spin trapping and EPR spectroscopy on day 17 after immunization, one day after treatment was terminated. […] We expect that the removal of NO by PTIO should not necessarily interfere with the induction of the response responsible for NO production and that as the supplied PTIO is used up NO levels should rapidly return to control values.
# In contrast to SJL mice, SWX mice immunized with PLP undergo a progressive,often fatal form of EAE. Clinical symptoms manifest as an ascending paralysis approximately 13 days after immunization and the disease rapidly progresses to its fatal endpoint by days 16-20. […] We conclude that the amount of carboxy-PTIO we administered, especially considering the short in vivo half life of the compound, was only sufficient to delay the onset of the EAE in the SWXJ-14 mouse.
# NO is not universally considered to be a molecule with significant in vivo toxicity and peroxynitrite is thought to be the more toxic molecule produced by activated inflammatory cells resulting from the interaction of NO and superoxide. We would henceforth expect that removal of NO would reduce peroxynitrite formation. To determine whether NO or peroxynitrite is more likely to be ultimately responsible for clinical disease in EAE we have performed a series of experiments using uric acid, a known scavenger of peroxynitrite, to treat EAE induced in SWXJ-14 mice by immunization with PLP.
# [5] = Water solubility; assay type: physicochemical
# [6] = mice, within 4 hours [17]; cited from earlier work
smiles,measurement,setting,value
"CC1(C)N([O])C(c2ccccc2)=[N+]([O-])C1(C)C [PTIO, 2-phenyl-4,4,5,5-tetramethylimidazoline-1-oxyl-3-oxide]",Symptoms of disease (FIG. 6),"[1]; PTIO 20 mg daily from day 2 to day 4 after T cell transfer, alone or in mix",little or no symptoms of disease
same,Clinical severity,"[1]; Rat-adoptive transfer EAE, severity score 1-5, Table 2",0.8
same,Duration of alleviation of clinical symptoms between doses,[1]; animals subjected to stimuli that induce EAE (species not specified),at least 24 hours
same,Clinical symptoms of EAE,"[1]; rats, MBP-specific T cell transfer, i.p. administration",forestall the appearance of clinical symptoms of EAE
same,NO-spinal cord,"[2]; Rat-adoptive transfer EAE, Table 2",undetectable
same,Levels of NO in spinal cord,"[2]; rats, adoptive transfer EAE, i.p. administration",reduce levels of NO detected in spinal cord
same,Onset and severity of EAE (FIG. 7),"[3]; 2 mg once daily i.p. from day 10 post-immunization, n=6",delayed onset of disease and somewhat lessened severity by comparison with untreated animals
same,Clinical symptoms of EAE,"[3]; SJL mice, i.p. administration",forestall the appearance of clinical symptoms of EAE
same,Clinical severity,"[3]; SJL mouse - immunization EAE, severity score 1-5, Table 2",0.8
same,Effectiveness when treatment is started after immunization,[4],effective when started 4-5 days after immunization with myelin antigens
same,Water solubility,[5],not water soluble
same,Amount accounted for in excretions,[6],Approximately 75%
